Data taken from article PMC9694048 (Pharmaceutics, 2022).
Values after ≈ are worked out from the molar mass of the structure shown. Counter-ions that a name gives are not always drawn. Like-named read-outs stand apart in the source and are kept apart here. Where a SMILES comes first, the peptide text is derived from it. [ ]: non-standard residue; d: D form.

How the values were obtained:
WERI-Rb1 cells [1] = assay: MTS cell viability assay; type: cell-based
Procedure: (§1) WERI-Rb1 and ARPE-19 cells were seeded at a concentration of 2 × 10^3 cells/well in a 96-well plate and cultured at 37 °C in a humidified 5% CO2 incubator. After seeding the cells, they were treated with various concentrations of CAPs and further incubated for 48 h at 37 °C. Cell viability was assessed after 48 h using the Cell-Titer 96® Aqueous One Solution Cell Proliferation Assay (cat#G3582, Promega, WI, USA) according to the manufacturer’s protocol and described earlier. Briefly, 10 µL of MTS reagent was added to each well and the cells were incubated at 37 °C for 2 h before the experiment end time points. Percentage cell viability was calculated from the absorbance measured at 490 nm using a TECAN microplate reader.

WERI-Rb1 cells [2] = assay: Trypan blue viability assay; type: cell-based; settings: WERI-Rb1, 48 h treatment; for cell death at a high dose: high dose (dose not specified); for cell death at a low dose: low dose (dose not specified)
Procedure: WERI-Rb1 cells (1 × 10^5) were treated with increasing concentrations (7.7 µM, 36.25 µM, 72.5 µM, 145 µM, or 290 µM) of a panel of six HC peptides (HC1, HC2, HC3, HC4, HC5, and HC6). Nocodazole (10 µM) treatment was used as a positive control for the study, with untreated cells as the negative control. All treatments were performed at 37 °C in a 90% humidified incubator with 5% CO2 for 48 h. After 48 h post-treatment, cells were stained with 0.4% trypan blue (cat#15250061, Invitrogen, Waltham, MA, USA) and the number of live and dead cells for each time point was estimated using the hemocytometer cell counting protocol. The percentage of cell viability was calculated by dividing the live cell count by the total cell count.

ARPE-19 cells [3] = assay: MTS cell viability assay; type: cell-based, Human; settings: ARPE-19, MTS, 48 h (Figure 2c)
Procedure: as §1

WERI-Rb1 tumor spheroids = assay: Tumor spheroid area by high content imaging; type: cell-based; settings: 7-day-old WERI-Rb1 spheroids, IC50 dose, 48 h, n = 9 per condition
Procedure: Spheroids were developed using the hanging drop protocol on low attachment U-bottom 96-well plate. The single cell suspension of 5 × 10^2 WERI-Rb1 cells in 100 µL medium was loaded in each well of a 96-well plate. The cells were cultured at 37 °C in a 90% humidified incubator with 5% CO2 for 7 days for the generation of tight and regular tumor spheroids. Seven-day-old spheroids (n = 9 per condition) were treated with 100 μL of freshly prepared medium containing an IC50 dose of topotecan (Figure S1), HC3, or HC5. The cultures were then incubated for 48 h prior to high content analysis (HCA) and immunofluorescence (IF) assays.
WERI-Rb1 cells were stained with orange plasma membrane stain as per the manufacturer’s protocol (Cell Mask Orange Plasma membrane stain; cat#C10045, Invitrogen, Waltham, MA, USA) prior to the development of spheroids. The stained WERI-Rb1 cells were used for spheroid formation using the hanging drop protocol on a low attachment U-bottom 96-well plate. […] The images were acquired using the automated high-content imaging system, IN Cell Analyzer 6000 (GE Healthcare, Singapore), equipped with a laser-based confocal platform having a 2× objective. The automatically captured single well imaging of spheroids and a Z stack of 11 images were separated by 50 µm total 500 µm depth for spheroids, using maximum intensity projection (MIP) acquisition and single-channel filter at 567 nm. To reduce data storage and image analysis time, we analyzed 2D projection images of tumor spheroids for multiple treatment conditions. Spheroid area and shape were automatically quantified by HCA using the IN-Cell 6000 software (GE Healthcare, Singapore). The mean area (µm^2) of each spheroid was calculated to elucidate the drug/peptide response.

WERI-Rb1 cells [4] = assay: Western blot of DNA damage markers; type: cell-based; settings: IC50 dose; for phosphorylation of ATM and CHK2 (immunoblot): 48-h treatment, Western blot (Figure 4b); for γH2A.X phosphorylation at Ser139 (immunoblot): 48 h, Western blot (Figure 4a)
Procedure: WERI-Rb1 cells were seeded in 6-well cell culture plates (1 × 10^6 cells/well), incubated at 37 °C in a humidified 5% CO2 incubator, and were treated with IC50 doses of topotecan, HC3. or HC5. After 48 h, cells were lysed in RIPA buffer (20 mM Tris pH 8.0, 0.1% SDS, 150 mM NaCl, 0.08% sodium deoxycholate, 1% NP40 supplemented with one tablet of protease inhibitor and phosphatase inhibitor (Roche). 20 µg of total protein was loaded per lane and separated by SDS-PAGE. The separated proteins on the gel were transferred to PVDF membrane and were probed for antibodies against γH2A.X (1:1000, cat#2595, Cell Signaling Technology, Danvers, MA, USA), p-γH2A.X (Ser139) (1:1000, cat#2577, Cell Signaling Technology, Danvers, MA, USA), p-BCL2(Ser70) (1:1000, cat#2827, Cell Signaling Technology, Danvers, MA, USA), BCL2 (1:1000, cat#2872, Cell Signaling Technology, Danvers, MA, USA), Bax (1:1000, cat#2772, Cell Signaling Technology, Danvers, MA, USA), p-ATM(Ser1981) (1:1000, cat#5883, Cell Signaling Technology, Danvers, MA, USA), ATM (1:1000, cat#2873, Cell Signaling Technology, Danvers, MA, USA), p-Chk2(Thr68) (1:1000, cat#2661, Cell Signaling Technology, Danvers, MA, USA), Chk2 ([…], cat#2662, Cell Signaling Technology, Danvers, MA, USA), p-p53(Ser15) (1:1000, cat#9284, Cell Signaling Technology, Danvers, MA, USA), p-p53(Ser46) (1:1000, cat#2521, Cell Signaling Technology, Danvers, MA, USA), p53 (1:1000, cat#2524, Cell Signaling Technology, Danvers, MA, USA), Cleaved caspase 9 (1:1000, cat#9505, Cell Signaling Technology, Danvers, MA, USA), Cleaved caspase 3 (1:1000, cat#9661, Cell Signaling Technology, Danvers, MA, USA), Cleaved PARP (1:1000, cat#5625, Cell Signaling Technology, Danvers, MA, USA), and GAPDH (1:2000, cat#ab9485, Abcam, Cambridge, UK). Proteins of interest were detected with HRP-conjugated sheep anti-mouse (1:5000, cat#7076, Cell Signaling Technology, Danvers, MA, USA) or anti-rabbit IgG antibody (1:5000, cat#7074, Cell Signaling Technology, Danvers, MA, USA) and visualized with the Clarity ECL Western blotting substrate (Bio-Rad, Hercules, CA, USA) according to the provided protocol.

ARPE-19 cells [5] = assay: Western blot of apoptotic markers in cytoplasmic and mitochondrial fractions; type: cell-based, Human; settings: ARPE-19, 48-h exposure, cytoplasmic and mitochondrial fractions (Figure 5c)
S. aureus/MRSA = assay: MIC by broth microdilution; type: cell-based; settings: 35 °C, 24 h, duplicates
Procedure: The minimum inhibitory concentrations (MIC) of cationic peptides were determined using the broth microdilution method in a 96-well microtiter plate (Cellstar, Greiner Bio-One, Austria). The inoculum was prepared by suspending overnight grown isolated colonies selected from a Tryptic Soy Agar (TSA) plate in water for injection. The concentration of the inoculum suspension was adjusted to match that of the 0.5 McFarland’s standard (10^8 CFU/mL) and further diluted 150-fold by adding 50 μL of suspension into 7.5 mL of Mueller−Hinton broth to obtain an inoculum of 10^5 to 10^6 CFU/mL. Lyophilized peptide obtained from the manufacturer was dissolved in water and adjusted to a final concentration of 0.5 to 256 μg/mL in twofold serial dilutions. A total of 100 μL of the solution was then mixed with an equal volume of bacterial inoculum prepared before in 96-well plates. The plates were then incubated at 35 °C for 24 h, and the optical density at 600 nm (OD600) was determined using a TECAN microplate reader.

[6] = WERI-Rb1 cells, 48 h, dose used for spheroid treatment

| SMILES | cell death at a high dose (WERI-Rb1 cells [2]) [%] | cell death at a low dose (WERI-Rb1 cells [2]) [%] | IC50 (WERI-Rb1 cells [1]; [6]) [µL/mL] | cytotoxic effect on non-malignant ARPE-19 cells (ARPE-19 cells [3]) | effect on Rb spheroid size (WERI-Rb1 tumor spheroids) | phosphorylation of ATM and CHK2 (immunoblot) (WERI-Rb1 cells [4]) | γH2A.X phosphorylation at Ser139 (immunoblot) (WERI-Rb1 cells [4]) | apoptotic events in ARPE-19 cells (Bax, cytochrome c) (ARPE-19 cells [5]) | other results |
| --- | --- | --- | --- | --- | --- | --- | --- | --- | --- |
| COc1cccc2c1C(=O)c1c(O)c3c(c(O)c1C2=O)C[C@@](O)(C(=O)CO)C[C@@H]3O[C@H]1C[C@H](N)[C@H](O)[C@H](C)O1 [doxorubicin] |  |  |  |  |  |  |  |  | IC50 (WERI-Rb1 cells [1]; WERI-Rb1, MTS, 48 h exposure, (Figure S4), read-out: IC50): 2500 nM |
| N=C(N)NCCC[C@@H](NC(=O)[C@H](CCCCN)NC(=O)[C@@H](CCCNC(=N)N)NC(=O)[C@H](CCCCN)NC(=O)[C@@H](CCCNC(=N)N)NC(=O)[C@H](CCCCN)NC(=O)[C@@H](CCCNC(=N)N)NC(=O)[C@H](CCCCN)NC(=O)[C@@H](CCCNC(=N)N)NC(=O)[C@H](CCCCN)NC(=O)[C@@H](CCCNC(=N)N)NC(=O)[C@@H](N)CCCCN)C(=O)O [HC3] (H-K[dR]K[dR]K[dR]K[dR]K[dR]K[dR]-OH; N-terminus and C-terminus assumed) | 60 | 40 | 77.2 | did not display any cytotoxic effect | effectively shrunk and decreased the Rb spheroid size | induced phosphorylation of ATM (ataxia-telangiectasia mutated) at Ser1981 and CHK2 at Thr68 | did not show any activation of γH2A.X(Ser139) | did not trigger any apoptotic events |  |
| CC[C@@]1(O)C(=O)OCc2c1cc1n(c2=O)Cc2cc3c(CN(C)C)c(O)ccc3nc2-1 [topotecan, Topotecan hydrochloride hydrate] |  |  |  |  | disrupted Rb spheroids |  | induction of γH2A.X phosphorylation at Ser139 | induced Bax expression in the mitochondrial fraction of ARPE-19 | IC50 (WERI-Rb1 cells [1]; WERI-Rb1, MTS, 48 h exposure, 5 nM to 50 nM (Figure S3), read-out: IC50): 10 nM |
| CCCCCCCCCC(=O)N[C@@H](Cc1c[nH]c2ccccc12)C(=O)N[C@H](CC(N)=O)C(=O)N[C@@H](CC(=O)O)C(=O)N[C@@H]1C(=O)NCC(=O)N[C@@H](CCCN)C(=O)N[C@@H](CC(=O)O)C(=O)N[C@H](C)C(=O)N[C@@H](CC(=O)O)C(=O)NCC(=O)N[C@H](CO)C(=O)N[C@@H]([C@H](C)CC(=O)O)C(=O)N[C@@H](CC(=O)c2ccccc2N)C(=O)O[C@@H]1C [Daptomycin] |  |  |  |  |  |  |  |  | Minimum inhibitory concentration (S. aureus/MRSA; strain MRSA 9808R, Mueller-Hinton broth): 0.31 µM (≈ 0.502 µg/mL); Minimum inhibitory concentration (S. aureus/MRSA; strain MRSA 21595, Mueller-Hinton broth): 0.31 µM (≈ 0.502 µg/mL); Minimum inhibitory concentration (S. aureus/MRSA; strain MRSA 42412, Mueller-Hinton broth): 0.31 µM (≈ 0.502 µg/mL); Minimum inhibitory concentration (S. aureus/MRSA; strain MRSA 43300, Mueller-Hinton broth): 0.31 µM (≈ 0.502 µg/mL); Minimum inhibitory concentration (S. aureus/MRSA; strain MRSA 68004, Mueller-Hinton broth): 0.31 µM (≈ 0.502 µg/mL); Minimum inhibitory concentration (S. aureus/MRSA; strain MRSA 700699, Mueller-Hinton broth): 0.62 µM (≈ 1 µg/mL); Minimum inhibitory concentration (S. aureus/MRSA; strain MRSA +B32:L426506, Mueller-Hinton broth): 0.31 µM (≈ 0.502 µg/mL); Minimum inhibitory concentration (S. aureus/MRSA; strain MRSA BAA38, Mueller-Hinton broth): 4.94 µM (≈ 8.01 µg/mL); Minimum inhibitory concentration (S. aureus/MRSA; strain MRSA DB57964/04, Mueller-Hinton broth): 0.31 µM (≈ 0.502 µg/mL); Minimum inhibitory concentration (S. aureus/MRSA; strain S. aureus 4299, Mueller-Hinton broth): 2.47 µM (≈ 4 µg/mL); Minimum inhibitory concentration (S. aureus/MRSA; strain S. aureus 4400R, Mueller-Hinton broth): 0.31 µM (≈ 0.502 µg/mL); Minimum inhibitory concentration (S. aureus/MRSA; strain S. aureus 4583R, Mueller-Hinton broth): 0.31 µM (≈ 0.502 µg/mL); Minimum inhibitory concentration (S. aureus/MRSA; strain S. aureus 6538, Mueller-Hinton broth): 0.15 µM (≈ 0.243 µg/mL); Minimum inhibitory concentration (S. aureus/MRSA; strain S. aureus 29213, Mueller-Hinton broth): 0.15 µM (≈ 0.243 µg/mL); Minimum inhibitory concentration (S. aureus/MRSA; strain S. aureus 29737, Mueller-Hinton broth): 0.31 µM (≈ 0.502 µg/mL) |
| N=C(N)NCCC[C@H](NC(=O)[C@@H](CCCCN)NC(=O)[C@H](CCCNC(=N)N)NC(=O)[C@@H](CCCCN)NC(=O)[C@H](CCCNC(=N)N)NC(=O)[C@@H](CCCCN)NC(=O)[C@H](CCCNC(=N)N)NC(=O)[C@@H](CCCCN)NC(=O)[C@H](CCCNC(=N)N)NC(=O)[C@@H](CCCCN)NC(=O)[C@H](CCCNC(=N)N)NC(=O)[C@H](N)CCCCN)C(=O)O [HC5] (H-[dK]R[dK]R[dK]R[dK]R[dK]R[dK]R-OH; N-terminus and C-terminus assumed) | 60 | 40 | 65.2 | did not display any cytotoxic effect | effectively shrunk and decreased the Rb spheroid size | induced phosphorylation of ATM (ataxia-telangiectasia mutated) at Ser1981 and CHK2 at Thr68 | did not show any activation of γH2A.X(Ser139) | did not trigger any apoptotic events |  |
